Measurements taken from US9605285B2, “Compositions and methods for succinate production” (CARGILL, INCORPORATED, priority 2011, dated 2017).

System: yeast cells
Test: EMS mutagenesis of yeast cells
Format: cell-based
Settings: 3 μL EMS per 200 μL cell suspension, approximately one hour
Protocol: For example, yeast cells from a fresh YP (yeast extract/peptone)+20 g/L glucose plate or liquid culture (OD600 1-4) are resuspended in sterile water to an OD600 of around 10. 200 μL aliquots of this cell suspension are pipetted into individual tubes and exposed to 3 μL […] (EMS) for approximately one hour, which kills around 65% of the cells. Higher EMS concentrations can also be used to increase the kill rate. After exposure, cells are neutralized with 5% sodium thiosulfate, washed in PBS buffer, recovered in rich media for approximately four hours, and cultured on selective media. Mock samples (no EMS) are also run to ensure that the conditions are selective. Alternatively, cell can be mutagenized using UV irradiation.

`CCOS(C)(=O)=O` [EMS, ethane methyl sulfonate] was tested, and the Cells killed was “around 65%”.
